In patent US11000601B2, “Conjugated biological molecules, pharmaceutical compositions and methods” (OBI Pharma, Inc., priority 2016, dated 2021):
Where “and” joins values, the source holds several entries; their conditions need not be identical. Equal values may be shown once. Marks after values point to notes of the source that are not given here. Square brackets hold non-standard residues; d marks the D form. Peptide text beside a SMILES is read from it. * marks the point of attachment. Dolaproine = CO[C@@H]([C@@H]1CCCN1)[C@@H](C)C(=O)O; Dil = CC[C@H](C)[C@H](NC)[C@@H](CC(=O)O)OC; X1 = C[C@@H](N*)[C@@H](O)c1ccccc1; NMeV = CN[C@H](C(=O)O)C(C)C

Tested on: NCI-N87 (ATCC CRL-5822) human gastric carcinoma
Assay: Xenograft tumor model of human gastric carcinoma NCI-N87 in female nu/nu mice: tumor volume, T/C, TGI
Assay type: in vivo, mouse
Conditions: for Tumor Volume (mm^3), individual animals / Tumor Volume, individual animal / Tumor Volume, individual mouse: 0.191 mg/kg; for Tumor Volume, individual mouse: individual animals
Protocol: In a xenograft tumor model of human gastric carcinoma, viable NCI-N87 (ATCC CRL-5822) cells were subcutaneously (SC) implanted (2.5×10^6 cells/mL with matrigel (1:1) at 0.2 mL/mouse) into the right flank of female nu/nu mice. Tumor implanted mice were divided into seven treatment groups, each group containing eight animals, and one group containing five animals, and dose administrations were initiated one day after cell implantation (denoted as Day 1).
Viable human gastric carcinoma NCI-N87 (ATCC CRL-5822) cell line was purchased and cultured in Eurofins Panlabs Taiwan, Ltd. The cells were cultured in RPMI-1640 medium containing 10% fetal bovine serum (FBS) at 37° C. in 5% CO2 incubator and implanted subcutaneously in the right flank of each mouse.
Female nude (nu/nu) mice aged 5-6 weeks obtained from BioLasco Taiwan (under Charles River Laboratories Licensee) were used. The animals were housed in individually ventilated cages (IVC, 36 Mini Isolator system). The allocation for 3 animals was 27×20×14 in cm. All animals were maintained in a hygienic environment under controlled temperature (20-24° C.) and humidity (30%-70%) with 12-hour light/dark cycle. Free access to standard lab diet [MFG (Oriental Yeast Co., Ltd., Japan)] and autoclaved tap water in bottles were granted. All aspects of this work including housing, experimentation, and animal disposal were performed in general accordance with the “Guide for the Care and Use of Laboratory Animals: Eighth Edition” (National Academies Press, Washington, D.C., 2011) in our AAALAC-accredited laboratory animal facility. In addition, the animal care and use protocol was reviewed and approved by the IACUC at Eurofins Panlabs Taiwan, Ltd.
The tumor volumes, body weights, mortality, and signs of overt toxicity were monitored and recorded twice weekly for 100 days. Tumor growth inhibition was calculated as T/C (treatment/control)×100%. A T/C value≤42% compared to that of the vehicle control group was considered significant anti-tumor activity. Two-way ANOVA followed by Bonferroni test was used to ascertain the statistically significant significance of groups compared to respective vehicle control (*p<0.05).

[1] = Day 1, 0.191 mg/kg × 4 IP once weekly
[2] = Day 4, 0.191 mg/kg × 4 IP once weekly
[3] = Day 8, 0.191 mg/kg × 4 IP once weekly
[4] = Day 11, 0.191 mg/kg × 4 IP once weekly
[5] = Day 15, 0.191 mg/kg × 4 IP once weekly
[6] = Day 18, 0.191 mg/kg × 4 IP once weekly
[7] = Day 22, 0.191 mg/kg × 4 IP once weekly
[8] = Day 25, 0.191 mg/kg × 4 IP once weekly
[9] = Day 29, 0.191 mg/kg × 4 IP once weekly
[10] = Day 32, 0.191 mg/kg × 4 IP once weekly
[11] = Day 36, 0.191 mg/kg × 4 IP once weekly
[12] = Day 39, 0.191 mg/kg × 4 IP once weekly
[13] = Day 43, 0.191 mg/kg × 4 IP once weekly
[14] = Day 46, 0.191 mg/kg × 4 IP once weekly
[15] = Day 50, 0.191 mg/kg × 4 IP once weekly
[16] = Day 53, 0.191 mg/kg × 4 IP once weekly

CC[C@H](C)[C@@H]([C@@H](CC(=O)N1CCC[C@H]1[C@H](OC)[C@@H](C)C(=O)N[C@H](C)[C@@H](O)c1ccccc1)OC)N(C)C(=O)[C@@H](NC(=O)[C@@H](NC)C(C)C)C(C)C [MMAE, monomethyl auristatin E] (H-[NMeV]V[Dil][Dolaproine]-X1)
maximum percent TGI (0.191 mg/kg IP once weekly for four weeks, Day 53): 53%
anti-tumor activity (in words) (0.191 mg/kg IP once weekly for four weeks, over the course of the study): moderate anti-tumor activity
Tumor Volume (mm^3), Mean [1]: 96 mm^3
Tumor Volume (mm^3), individual animals [1]: 61 mm^3 and 89 mm^3 and 83 mm^3 and 88 mm^3 (2×) and 125 mm^3 and 110 mm^3 and 121 mm^3
% T/C [2]: 88%
% TGI [2]: 12%
Tumor Volume (mm^3), Mean [2]: 109 mm^3
Tumor Volume (mm^3), individual animals [2]: 106 mm^3 and 102 mm^3 and 115 mm^3 (3×) and 104 mm^3 and 109 mm^3
% T/C [3]: 83%
% TGI [3]: 17%
Tumor Volume (mm^3), Mean [3]: 122 mm^3
Tumor Volume (mm^3), individual animals [3]: 117 mm^3 and 142 mm^3 and 127 mm^3 and 115 mm^3 and 110 mm^3 and 125 mm^3 and 119 mm^3
% T/C [4]: 59%
% TGI [4]: 41%
Tumor Volume (mm^3), Mean [4]: 165 mm^3
Tumor Volume (mm^3), individual animals [4]: 162 mm^3 and 158 mm^3 and 137 mm^3 and 169 mm^3 and 174 mm^3 and 187 mm^3 and 166 mm^3
% T/C [5]: 60%
% TGI [5]: 40%
Tumor Volume (mm^3), Mean [5]: 189 mm^3
Tumor Volume (mm^3), individual animals [5]: 153 mm^3 and 189 mm^3 (2×) and 178 mm^3 and 231 mm^3 and 175 mm^3 and 208 mm^3
% T/C [6]: 57%
% TGI [6]: 43%
Tumor Volume (mm^3), Mean [6]: 218 mm^3
Tumor Volume (mm^3), individual animals [6]: 152 mm^3 and 213 mm^3 and 234 mm^3 and 255 mm^3 and 231 mm^3 and 228 mm^3 and 211 mm^3
% T/C [7]: 54%
% TGI [7]: 46%
Tumor Volume (mm^3), Mean [7]: 252 mm^3
Tumor Volume (mm^3), individual animals [7]: 144 mm^3 and 201 mm^3 and 246 mm^3 and 303 mm^3 and 252 mm^3 and 322 mm^3 and 296 mm^3
% T/C [8]: 53%
% TGI [8]: 47%
Tumor Volume (mm^3), Mean [8]: 277 mm^3
Tumor Volume (mm^3), individual animals [8]: 146 mm^3 and 216 mm^3 and 259 mm^3 and 356 mm^3 and 315 mm^3 and 353 mm^3 and 296 mm^3
% T/C [9]: 59%
% TGI [9]: 41%
Tumor Volume, Mean [9]: 371* mm^3
Tumor Volume, individual animal [9]: 162 mm^3 and 277 mm^3 and 399 mm^3 and 406 mm^3 and 439 mm^3 and died and 525 mm^3 and 387 mm^3
% T/C [10]: 54%
% TGI [10]: 46%
Tumor Volume, Mean [10]: 389* mm^3
Tumor Volume, individual animal [10]: 160 mm^3 and 318 mm^3 and 397 mm^3 and 385 mm^3 and 446 mm^3 and died and 584 mm^3 and 432 mm^3
% T/C [11]: 50%
% TGI [11]: 50%
Tumor Volume, Mean [11]: 406* mm^3
Tumor Volume, individual animal [11]: 94 mm^3 and 345 mm^3 and 390 mm^3 and 389 mm^3 and 506 mm^3 and died and 658 mm^3 and 459 mm^3
% T/C [12]: 47%
% TGI [12]: 53%
Tumor Volume, Mean [12]: 431* mm^3
Tumor Volume, individual animal [12]: 94 mm^3 and 385 mm^3 and 407 mm^3 and 442 mm^3 and 530 mm^3 and died and 671 mm^3 and 487 mm^3
% T/C [13]: 48%
% TGI [13]: 52%
Tumor Volume, Mean [13]: 477* mm^3
Tumor Volume, individual animal [13]: 97 mm^3 and 414 mm^3 and 429 mm^3 and 489 mm^3 and 581 mm^3 and died and 780 mm^3 and 549 mm^3
% T/C [14]: 51%
% TGI [14]: 49%
Tumor Volume, Mean [14]: 555* mm^3
Tumor Volume, individual animal [14]: 91 mm^3 and 606 mm^3 and 535 mm^3 and 495 mm^3 and 719 mm^3 and died and 878 mm^3 and 561 mm^3
% T/C [15]: 49%
% TGI [15]: 51%
Tumor Volume, Mean [15]: 589* mm^3
Tumor Volume, individual animal [15]: 89 mm^3 and 623 mm^3 and 569 mm^3 and 550 mm^3 and 766 mm^3 and died and 936 mm^3 and 590 mm^3
% T/C [16]: 47%
% TGI [16]: 53%
Tumor Volume, Mean [16]: 639* mm^3
Tumor Volume, individual animal [16]: 88 mm^3 and 682 mm^3 and 590 mm^3 and 581 mm^3 and 816 mm^3 and died and 1094 mm^3 and 620 mm^3
Tumor Volume, Mean (Day 57, 0.191 mg/kg × 4 IP (Once weekly), group mean): 676 mm^3
Tumor Volume, individual mouse (Day 57, 0.191 mg/kg × 4 IP (Once weekly)): 85 mm^3 and 694 mm^3 and 663 mm^3 and 627 mm^3 and 870 mm^3 and 1141 mm^3 and 650 mm^3
Tumor Volume, Mean (Day 60, 0.191 mg/kg × 4 IP (Once weekly), group mean): 720 mm^3
Tumor Volume, individual mouse (Day 60, 0.191 mg/kg × 4 IP (Once weekly)): 83 mm^3 and 745 mm^3 and 783 mm^3 and 664 mm^3 and 854 mm^3 and 1234 mm^3 and 676 mm^3
Tumor Volume, Mean (Day 64, 0.191 mg/kg × 4 IP (Once weekly), group mean): 747 mm^3
Tumor Volume, individual mouse (Day 64, 0.191 mg/kg × 4 IP (Once weekly)): 82 mm^3 and 765 mm^3 and 788 mm^3 and 702 mm^3 and 920 mm^3 and 1272 mm^3 and 703 mm^3
Tumor Volume, Mean (Day 67, 0.191 mg/kg × 4 IP (Once weekly), group mean): 818 mm^3
Tumor Volume, individual mouse (Day 67, 0.191 mg/kg × 4 IP (Once weekly)): 79 mm^3 and 883 mm^3 and 827 mm^3 and 726 mm^3 and 1070 mm^3 and 1300 mm^3 and 840 mm^3
Tumor Volume, Mean (Day 70, 0.191 mg/kg × 4 IP (Once weekly), group mean): 846 mm^3
Tumor Volume, individual mouse (Day 70, 0.191 mg/kg × 4 IP (Once weekly)): 76 mm^3 and 943 mm^3 and 870 mm^3 and 726 mm^3 and 1090 mm^3 and 1358 mm^3 and 859 mm^3
Tumor Volume, Mean (Day 74, 0.191 mg/kg × 4 IP (Once weekly), group mean): 901 mm^3
Tumor Volume, individual mouse (Day 74, 0.191 mg/kg × 4 IP (Once weekly)): 74 mm^3 and 1012 mm^3 and 909 mm^3 and 856 mm^3 and 1117 mm^3 and 1422 mm^3 and 916 mm^3
Tumor Volume, Mean (Day 78, 0.191 mg/kg × 4 IP (Once weekly), group mean): 931 mm^3
Tumor Volume, individual mouse (Day 78, 0.191 mg/kg × 4 IP (Once weekly)): 74 mm^3 and 1042 mm^3 and 955 mm^3 and 890 mm^3 and 1197 mm^3 and 1431 mm^3 and 928 mm^3
Tumor Volume, Mean (Day 81, 0.191 mg/kg × 4 IP (Once weekly), group mean): 951 mm^3
Tumor Volume, individual mouse (Day 81, 0.191 mg/kg × 4 IP (Once weekly)): 77 mm^3 and 1064 mm^3 and 961 mm^3 and 903 mm^3 and 1197 mm^3 and 1517 mm^3 and 935 mm^3
Tumor Volume, Mean (Day 85, 0.191 mg/kg × 4 IP (Once weekly), group mean): 1002 mm^3
Tumor Volume, individual mouse (Day 85, 0.191 mg/kg × 4 IP (Once weekly)): 77 mm^3 and 1097 mm^3 and 1033 mm^3 and 933 mm^3 and 1331 mm^3 and 1558 mm^3 and 988 mm^3
Tumor Volume, Mean (Day 88, 0.191 mg/kg × 4 IP (Once weekly), group mean): 1032 mm^3
Tumor Volume, individual mouse (Day 88, 0.191 mg/kg × 4 IP (Once weekly)): 74 mm^3 and 1104 mm^3 and 1117 mm^3 and 933 mm^3 and 1346 mm^3 and 1626 mm^3 and 1023 mm^3
Tumor Volume, Mean (Day 91, 0.191 mg/kg × 4 IP (Once weekly), group mean): 1037 mm^3
Tumor Volume, individual mouse (Day 91, 0.191 mg/kg × 4 IP (Once weekly)): 72 mm^3 and 1122 mm^3 and 1130 mm^3 and 933 mm^3 and 1346 mm^3 and 1636 mm^3 and 1023 mm^3
Tumor Volume, Mean (Day 95, 0.191 mg/kg × 4 IP (Once weekly), group mean): 1060 mm^3
Tumor Volume, individual mouse (Day 95, 0.191 mg/kg × 4 IP (Once weekly)): 68 mm^3 and 1192 mm^3 and 1184 mm^3 and 947 mm^3 and 1354 mm^3 and 1646 mm^3 and 1029 mm^3
Tumor Volume, Mean (Day 98, 0.191 mg/kg × 4 IP (Once weekly), group mean): 1101 mm^3
Tumor Volume, individual mouse (Day 98, 0.191 mg/kg × 4 IP (Once weekly)): 68 mm^3 and 1215 mm^3 and 1265 mm^3 and 1061 mm^3 and 1398 mm^3 and 1656 mm^3 and 1043 mm^3
Tumor Volume, Mean (Day 100, 0.191 mg/kg × 4 IP (Once weekly), group mean): 1106 mm^3
Tumor Volume, individual mouse (Day 100, 0.191 mg/kg × 4 IP (Once weekly)): 62 mm^3 and 1254 mm^3 and 1273 mm^3 and 1076 mm^3 and 1444 mm^3 and 1590 mm^3 and 1043 mm^3
